According to patent publication US12466838B2, “Crystalline form of a multi-tyrosine kinase inhibitor, method of preparation, and use thereof” (Mirati Therapeutics, Inc., priority 2019, dated 2025):
“Also recorded” adds a separate entry of the source. Each block holds one compound with its values, some of them ahead of it.

Assays:
[1] = Drying experiments (non-solvent based), solid form by XRPD; format: physicochemical; conditions: Vacuum oven drying, ~40° C., 2.5
Description: (§1) XRPD patterns were collected with a PANalytical X'Pert PRO MPD diffractometer using an incident beam of Cu radiation produced using an Optix long, fine-focus source. An elliptically graded multilayer mirror was used to focus Cu Kα X-ray radiation through the specimen and onto the detector. Prior to the analysis, a silicon specimen (NIST SRM 640d) was analyzed to verify the observed position of the Si (111) peak is consistent with the NIST-certified position. A specimen of the sample was sandwiched between 3-μm-thick films and analyzed in transmission geometry. A beam-stop, short antiscatter extension, and antiscatter knife edge, were used to minimize the background generated by air. Soller slits for the incident and diffracted beams were used to minimize broadening from axial divergence. Diffraction patterns were collected using a scanning position-sensitive detector (X'Celerator) located 240 mm from the specimen and Data Collector software v. 2.2b.
Limited non-solvent based experiments were conducted with materials generated during the stable form screen and included short term vacuum drying at elevated temperature.

[2] = Preliminary physical stability assessment of Form D, XRPD; format: physicochemical
Description: as §1, with “2.2b. Preliminary physical stability assessment of Form D was performed. […] The XRPD patterns of the stressed materials show no significant peak shifts compared to the untreated samples. The XRPD pattern of Form D obtained from high water activity slurry is consistent with the pattern of the untreated material. However, small shifts of selected peaks were observed, possibly due to hydration.” for “2.2b.”

[3] = test system: tyrosine kinases, including RET, CBL, CHR4q12, DDR and Trk; conditions: cited from earlier work
[4] = test system: human xenograft tumor models; conditions: multiple human xenograft tumor models in mice; cited from earlier work
[5] = Slurry interconversion experiments, solid form by XRPD; format: physicochemical; conditions: slurry of Forms C, D, and H in ethyl acetate
Description: as §1
To investigate the relationship between selected materials produced during screening, limited slurry interconversion experiments were conducted. The experiments were performed by slurring seeds of solids of interest at ambient temperature in two different solvent systems. All materials were vacuum dried prior to the slurry (˜40° C., ˜2.5 hours). Solvent conditions were selected to achieve sufficient solubility of materials tested. […]

XRPD Results after drying [1]: Form C
Compound: COCCNCc1ccc(-c2cc3nccc(Oc4ccc(NC(=O)C5(C(=O)Nc6ccc(F)cc6)CC5)cc4F)c3s2)nc1 [Form C, N-(3-fluoro-4-((2-(5-(((2-methoxyethyl)amino)methyl)pyridin-2-yl)thieno[3,2-b]pyridin-7-yl)oxy)phenyl)-N-(4-fluorophenyl)cyclopropane-1,1-dicarboxamide]

Compound: COCCNCc1ccc(-c2cc3nccc(Oc4ccc(NC(=O)C5(C(=O)Nc6ccc(F)cc6)CC5)cc4F)c3s2)nc1 [Form D]
XRPD Results after drying [1]: remained unchanged; also recorded: Form D
XRPD Results (physical stability) ([2]; Acetone/water (40/60), slurry, RT): Consistent with Form D, slight peak shifts
XRPD Results (physical stability) ([2]; EtOH/water (40/60), slurry, RT): Consistent with Form D, slight peak shifts
XRPD Results (physical stability) ([2]; Water, slurry, RT): Consistent with Form D, slight peak shifts
XRPD Results (physical stability) ([2]; ~43% RH/RT): remained unchanged; also recorded: Consistent with Form D, no significant shifts of peaks
XRPD Results (physical stability) ([2]; ~75% RH/RT): remained unchanged; also recorded: Consistent with Form D, no significant shifts of peaks

Compound: COCCNCc1ccc(-c2cc3nccc(Oc4ccc(NC(=O)C5(C(=O)Nc6ccc(F)cc6)CC5)cc4F)c3s2)nc1 [Compound 1, N-(3-fluoro-4-((2-(5-(((2-methoxyethyl)amino)methyl)pyridin-2-yl)thieno[3,2-b]pyridin-7-yl)oxy)phenyl)-N-(4-fluorophenyl)cyclopropane-1,1-dicarboxamide]
inhibition of a closely related spectrum of tyrosine kinases [3]: potent inhibition
tumor regression [4]: shows tumor regression

XRPD Results after drying [1]: Form H
relative thermodynamic stability among Forms C, D and H [5]: least thermodynamically stable
Compound: COCCNCc1ccc(-c2cc3nccc(Oc4ccc(NC(=O)C5(C(=O)Nc6ccc(F)cc6)CC5)cc4F)c3s2)nc1 [Form H, N-(3-fluoro-4-((2-(5-(((2-methoxyethyl)amino)methyl)pyridin-2-yl)thieno[3,2-b]pyridin-7-yl)oxy)phenyl)-N-(4-fluorophenyl)cyclopropane-1,1-dicarboxamide]
